Source: US12115167B2 (Woolsey Pharmaceuticals, Inc., priority 2022, dated 2024)
Where a name gives a salt, the structure may show the parent alone.

Experiment: Stability of fasudil in 0.05M citrate buffer with and without EDTA, 60° C. for 36 days
Type: physicochemical
Conditions: 60° C. 36 days, in words
Protocol: Samples were stored at 60° C. for 36 days.

compatibility with EDTA: compatible with EDTA in citrate buffer
SMILES: O=S(=O)(c1cccc2cnccc12)N1CCCNCC1 [fasudil, hexahydro-1-(5-isoquinolinesulfonyl)-1H-1,4-diazepine monohydrochloride hemihydrate]
